Read-outs that look alike come from different tables or passages of the source.
Key:
[1] = molecular target: T1, recombinant human ALK5 (TGF-βR1) protein (Homo sapiens, UniProt P36897); assay: Biochemical ALK5 (TGF-βR1) assay to measure pKi (LANCE Ultra ULight kinase assay); details: apparent pKi from pIC50 by Cheng-Prusoff, read-out: ALK5 pKi (converted)
T1 construct: purchased Life Technologies PR9075A
T1 sequence (P36897 34-503): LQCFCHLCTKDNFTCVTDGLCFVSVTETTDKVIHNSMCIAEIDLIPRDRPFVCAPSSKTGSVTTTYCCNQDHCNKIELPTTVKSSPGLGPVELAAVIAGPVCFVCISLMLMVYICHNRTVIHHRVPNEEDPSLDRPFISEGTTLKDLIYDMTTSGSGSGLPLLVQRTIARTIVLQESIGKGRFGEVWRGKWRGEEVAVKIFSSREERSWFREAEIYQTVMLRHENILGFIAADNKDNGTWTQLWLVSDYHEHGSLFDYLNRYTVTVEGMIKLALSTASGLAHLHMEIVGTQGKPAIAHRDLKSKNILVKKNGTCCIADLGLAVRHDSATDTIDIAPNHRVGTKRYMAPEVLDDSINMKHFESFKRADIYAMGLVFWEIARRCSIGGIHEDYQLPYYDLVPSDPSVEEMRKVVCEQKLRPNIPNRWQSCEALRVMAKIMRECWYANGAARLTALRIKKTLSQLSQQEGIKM
Method in brief: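 Compounds (10 μM to 25 pM) preincubated 60 minutes at room temperature with enzyme, then reaction run 60 minutes at 37° C with ATP added as 125 μM (5× final). Stopped with EDTA plus Eu-anti-phospho-Topoisomerase 2-alpha (Thr1342) antibody, TR-FRET read at 665 nm; pIC50 converted to pKi via Cheng-Prusoff.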

[2] = test system: TGF-β-stimulated SMAD3 phosphorylation in BEAS-2B cells; assay: Cellular ALK5 potency assay, inhibition of TGF-β stimulated pSMAD3 formation in BEAS-2B cells; assay type: cell-based; details: Homo sapiens, read-out: BEAS2B pIC50 (converted)
Method in brief: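 Potency is reported as pIC50, derived from concentration-dependent reduction of pSMAD3 AlphaLISA signal against TGF-β-stimulated cells without compound. BEAS-2B cells received compound for 1 h before a 30-min stimulation with 10 ng/mL TGF-β.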

[3] = inhibition of TGF-β stimulated pSMAD3 formation, BEAS-2B cells

Structure (SMILES) | Ki [1] [nM] | IC50 [2, 3] [nM] | IC50 ([2]; BEAS-2B) [nM]
Cc1cccc(-c2[nH]cnc2-c2ccc3ncc(-c4ccc(C(=O)OCCN5CCNCC5)cn4)cc3c2)n1 [Compound 1025, 2-piperazin-1-ylethyl 6-[6-[5-(6-methyl-2-pyridyl)-1H-imidazol-4-yl]-3-quinolyl]pyridine-3-carboxylate] | 0.0398 to 0.316 | 25.1 to 158 | 
Cc1cccc(-c2[nH]cnc2-c2ccc3ncc(-c4ccc(CN5CCNCC5)nc4)cc3c2)n1 [Compound 1026, 6-[5-(6-methyl-2-pyridyl)-1H-imidazol-4-yl]-3-[6-(piperazin-1-ylmethyl)-3-pyridyl]quinoline] | 0.0398 to 0.316 | 25.1 to 158 | 
Cc1cccc(-c2[nH]cnc2-c2ccc3ncc(-c4ccc(C(=O)OC5CNC5)cn4)cc3c2)n1 [Compound 1027, azetidin-3-yl 6-[6-[5-(6-methyl-2-pyridyl)-1H-imidazol-4-yl]-3-quinolyl]pyridine-3-carboxylate] | 0.0398 to 0.316 | 25.1 to 158 | 
Cc1cccc(-c2[nH]cnc2-c2ccc3ncc(-c4ncc(CN5C[C@@H](C)N[C@@H](C)C5)s4)cc3c2)n1 [Compound 1028, 5-[[(3S,5R)-3,5-dimethylpiperazin-1-yl]methyl]-2-[6-[5-(6-methyl-2-pyridyl)-1H-imidazol-4-yl]-3-quinolyl]thiazole] | 0.0398 to 0.316 | < 20 | 
Cc1cccc(-c2[nH]ncc2-c2ccc3ncc(OC(=O)[C@H]4C[C@@H](N)C4)cc3c2)n1 [Compound 1032, 6-(5-(6-methylpyridin-2-yl)-1H-pyrazol-4-yl)quinolin-3-yl (1s,3s)-3-aminocyclobutane-1-carboxylate] | 0.0398 to 0.316 |  | < 20
Cc1cccc(-c2[nH]cnc2-c2ccc3ncc(C4=CCN(C(=O)C5CNC5)CC4)cc3c2)n1 [Compound 1036, azetidin-3-yl-[4-[6-[5-(6-methyl-2-pyridyl)-1H-imidazol-4-yl]-3-quinolyl]-3,6-dihydro-2H-pyridin-1-yl]methanone] | 0.0398 to 0.316 | 200 to 1260 | 
Cc1cccc(-c2[nH]cnc2-c2ccc3nccc(C(=O)OCC4CNC4)c3c2)n1 [Compound 1038, azetidin-3-ylmethyl 6-[5-(6-methyl-2-pyridyl)-1H-imidazol-4-yl]quinoline-4-carboxylate] | 0.398 to 3.16 | 25.1 to 158 | 
Cc1cccc(-c2[nH]cnc2-c2ccc3ncc(C(=O)OCCN)cc3c2)n1 [Compound 1040, 2-aminoethyl 6-[5-(6-methyl-2-pyridyl)-1H-imidazol-4-yl]quinoline-3-carboxylate] | 0.398 to 3.16 | 25.1 to 158 | 
Cc1cccc(-c2[nH]cnc2-c2ccc3ncc(-c4cccc(C(=O)O)n4)cc3c2)n1 [Compound 1041, 6-[6-[5-(6-methyl-2-pyridyl)-1H-imidazol-4-yl]-3-quinolyl]pyridine-2-carboxylic acid] | 0.0398 to 0.316 | 1580 to 10000 | 
Cc1cccc(-c2[nH]cnc2-c2ccc3nccc(C(=O)O[C@H]4C[C@@H](N)C4)c3c2)n1 [Compound 1042, (3-aminocyclobutyl) 6-[5-(6-methyl-2-pyridyl)-1H-imidazol-4-yl]quinoline-4-carboxylate] | 0.398 to 3.16 | 25.1 to 158 | 
Cc1cccc(-c2[nH]cnc2-c2ccc3ncc(-c4nc(C5=CCNC5)cs4)cc3c2)n1 [Compound 1043, 4-(2,5-dihydro-1H-pyrrol-3-yl)-2-[6-[5-(6-methyl-2-pyridyl)-1H-imidazol-4-yl]-3-quinolyl]thiazole] | 0.0398 to 0.316 | < 20 | 
Cc1cccc(-c2[nH]cnc2-c2ccc3ncc(-c4cccc(C(=O)OCC5CNC5)n4)cc3c2)n1 [Compound 1044, azetidin-3-ylmethyl 6-[6-[5-(6-methyl-2-pyridyl)-1H-imidazol-4-yl]-3-quinolyl]pyridine-2-carboxylate] | < 0.0316 | 200 to 1260 | 
Cc1cccc(-c2[nH]cnc2-c2ccc3ncc(-c4ccc(CN5C[C@@H](C)N[C@@H](C)C5)nc4)cc3c2)n1 [Compound 1045, 3-(6-(((3S,5R)-3,5-dimethylpiperazin-1-yl)methyl)pyridin-3-yl)-6-(5-(6-methylpyridin-2-yl)-1H-imidazol-4-yl)quinoline] | 0.0398 to 0.316 | 25.1 to 158 | 

Source: US11590116B2 (THERAVANCE BIOPHARMA R&D IP, LLC, priority 2019, dated 2023)
